# From ChEMBL document CHEMBL1201862, “PubChem BioAssay data set” (2004)
#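 Values below derive from 48-hour exposures of cells grown in 96-well plates, with endpoints linearly interpolated between the two concentrations bracketing the appropriate inhibition level. GI50 = concentration required for 50% inhibition of growth.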 Calls of active or inactive are those of the source. Rule as the data show it: active = GI50 up to about 1.1 µM and inactive = higher.
# Key:
# Experiment in all cases: inhibition of tumour cell growth, NCI panel, 48 h
# SNB-19 = tested on: SNB-19
# SK-MEL-28 = tested on: SK-MEL-28
# 786-0 = tested on: 786-0
# IGROV-1 = tested on: IGROV-1
# COLO 205 = tested on: COLO 205
# LOX IMVI = tested on: LOX IMVI
# MDA-N = tested on: MDA-N
# NCI-H460 = tested on: NCI-H460
# BT-549 = tested on: BT-549
# MDA-MB-435 = tested on: MDA-MB-435
# SW-620 = tested on: SW-620
# OVCAR-3 = tested on: OVCAR-3
# HT-29 = tested on: HT-29
# HCC 2998 = tested on: HCC 2998
# U-251 = tested on: U-251
# UO-31 = tested on: UO-31
# SR = tested on: SR
# MCF7 = tested on: MCF7
# SF-539 = tested on: SF-539
# CAKI-1 = tested on: CAKI-1
# HL-60 = tested on: HL-60
# SK-MEL-5 = tested on: SK-MEL-5
# UACC-257 = tested on: UACC-257
# EKVX = tested on: EKVX
# NCI-H226 = tested on: NCI-H226
# Malme-3M = tested on: Malme-3M
# Hs-578T = tested on: Hs-578T
# HOP-92 = tested on: HOP-92
# UACC-62 = tested on: UACC-62
# NCI-H522 = tested on: NCI-H522
# RXF 393 = tested on: RXF 393
# TK-10 = tested on: TK-10
# A549 = tested on: A549
# KM12 = tested on: KM12
# ACHN = tested on: ACHN
# SN12C = tested on: SN12C
# HOP-62 = tested on: HOP-62
# OVCAR-5 = tested on: OVCAR-5
# MOLT-4 = tested on: MOLT-4
# T47D = tested on: T47D
# A498 = tested on: A498
# CCRF-CEM = tested on: CCRF-CEM
# HCT-15 = tested on: HCT-15
# OVCAR-8 = tested on: OVCAR-8
# SK-MEL-2 = tested on: SK-MEL-2
# MDA-MB-231 = tested on: MDA-MB-231
# M14 = tested on: M14
# K562 = tested on: K562
# SF-268 = tested on: SF-268
# PC-3 = tested on: PC-3
# NCI/ADR-RES = tested on: NCI/ADR-RES
# SF-295 = tested on: SF-295
# DU-145 = tested on: DU-145
# SNB-75 = tested on: SNB-75
# RPMI-8226 = tested on: RPMI-8226
# SK-OV-3 = tested on: SK-OV-3
# NCI-H23 = tested on: NCI-H23
# HCT-116 = tested on: HCT-116
# OVCAR-4 = tested on: OVCAR-4
compound,measurement,setting,value
Cc1cc(=O)oc2cc(OC(=O)Nc3ccc(Cl)c(Cl)c3)ccc12,GI50,SNB-19,25.9 µM (inactive)
same,GI50,SK-MEL-28,25.4 µM (inactive)
same,GI50,786-0,38.8 µM (inactive)
same,GI50,IGROV-1,20.2 µM (inactive)
same,GI50,COLO 205,32.4 µM (inactive)
same,GI50,LOX IMVI,18.9 µM (inactive)
same,GI50,MDA-N,21.3 µM (inactive)
same,GI50,NCI-H460,18.5 µM (inactive)
same,GI50,BT-549,17.8 µM (inactive)
same,GI50,MDA-MB-435,20.9 µM (inactive)
same,GI50,SW-620,21.4 µM (inactive)
same,GI50,OVCAR-3,13 µM (inactive)
same,GI50,HT-29,25.2 µM (inactive)
same,GI50,HCC 2998,19.4 µM (inactive)
same,GI50,U-251,20.4 µM (inactive)
same,GI50,UO-31,27.4 µM (inactive)
same,GI50,SR,19.7 µM (inactive)
same,GI50,MCF7,25.6 µM (inactive)
same,GI50,SF-539,18.8 µM (inactive)
same,GI50,CAKI-1,38.3 µM (inactive)
same,GI50,HL-60,18.5 µM (inactive)
same,GI50,SK-MEL-5,16.1 µM (inactive)
same,GI50,UACC-257,30.8 µM (inactive)
same,GI50,EKVX,30.8 µM (inactive)
same,GI50,NCI-H226,20.3 µM (inactive)
same,GI50,Malme-3M,23.1 µM (inactive)
same,GI50,Hs-578T,20.7 µM (inactive)
same,GI50,HOP-92,13.6 µM (inactive)
same,GI50,UACC-62,16 µM (inactive)
same,GI50,NCI-H522,17.3 µM (inactive)
same,GI50,RXF 393,14.3 µM (inactive)
same,GI50,TK-10,34.9 µM (inactive)
same,GI50,A549,24.8 µM (inactive)
same,GI50,KM12,27.1 µM (inactive)
same,GI50,ACHN,20.9 µM (inactive)
same,GI50,SN12C,25.3 µM (inactive)
same,GI50,HOP-62,24.7 µM (inactive)
same,GI50,OVCAR-5,20.4 µM (inactive)
same,GI50,MOLT-4,17.1 µM (inactive)
same,GI50,T47D,12 µM (inactive)
same,GI50,A498,14.2 µM (inactive)
same,GI50,CCRF-CEM,20.7 µM (inactive)
same,GI50,HCT-15,20.9 µM
same,GI50,OVCAR-8,20.2 µM (inactive)
same,GI50,SK-MEL-2,21.6 µM (inactive)
same,GI50,MDA-MB-231,26 µM (inactive)
same,GI50,M14,22.6 µM (inactive)
same,GI50,K562,10.9 µM (inactive)
same,GI50,SF-268,38 µM (inactive)
same,GI50,PC-3,22.5 µM (inactive)
same,GI50,NCI/ADR-RES,30.5 µM (inactive)
same,GI50,SF-295,20.9 µM (inactive)
same,GI50,DU-145,25.3 µM (inactive)
same,GI50,SNB-75,25.2 µM (inactive)
same,GI50,RPMI-8226,9.29 µM (inactive)
same,GI50,SK-OV-3,36.4 µM (inactive)
same,GI50,NCI-H23,20.7 µM (inactive)
same,GI50,HCT-116,15.5 µM (inactive)
same,GI50,OVCAR-4,41.3 µM (inactive)
